Test results reported in patent US12077503B2, “Substituted cyclic amides and their use as herbicides” (FMC CORPORATION, priority 2015, dated 2024).

Assays:
Format in all cases: in vivo
[1] = test system: giant foxtail (Setaria faberii); experiment: Test A preemergence
How it was run: (§1)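 Each rating is a visual injury score from 0 to 100 given about 10 d after treatment, judged against untreated controls kept alongside in the greenhouse. In loam soil–sand blend, seeds got a preemergence directed soil spray, while postemergence plants were 2 to 10 cm tall at spraying.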

Kochia (Kochia scoparia) [2] = experiment: Test A preemergence
How it was run: as §1

[3] = test system: pigweed (Amaranthus retroflexus); experiment: Test A preemergence
[4] = test system: ryegrass, Italian (Italian ryegrass, Lolium multiflorum); experiment: Test A preemergence
How it was run: as §1

[5] = test system: ragweed (common ragweed, Ambrosia elatior); experiment: Test A preemergence
How it was run: as §1

[6] = test system: barnyardgrass (Echinochloa crus-galli); experiment: Test A preemergence
How it was run: as §1

[7] = test system: ducksalad (Heteranthera limosa); experiment: Test C flooded paddy test; settings: Flood, 0 is no effect, 100 is complete control
From the text: (§2) Plant species in the flooded paddy test consisted of rice (Oryza sativa), sedge, umbrella (small-flower umbrella sedge, Cyperus difformis), ducksalad (Heteranthera limosa), and barnyardgrass (Echinochloa crus-galli) grown to the 2-leaf stage for testing. At time of treatment, test pots were flooded to 3 cm above the soil surface, treated by application of test compounds directly to the paddy water, and then maintained at that water depth for the duration of the test. Treated plants and controls were maintained in a greenhouse for 13 to 15 d, after which time all species were compared to controls and visually evaluated. Plant response ratings, summarized in Table C, are based on a scale of 0 to 100 where 0 is no effect and 100 is complete control. A dash (-) response means no test result.

[8] = test system: sedge, umbrella (small-flower umbrella sedge, Cyperus difformis); experiment: Test C flooded paddy test; settings: Flood, 0 is no effect, 100 is complete control
From the text: as §2

rice (Oryza sativa) = experiment: Test C flooded paddy test; settings: Flood, 0 is no effect, 100 is complete control
From the text: as §2

[9] = test system: barnyardgrass (Echinochloa crus-galli); experiment: Test C flooded paddy test; settings: Flood, 0 is no effect, 100 is complete control
From the text: as §2

[10] = test system: ducksalad (Heteranthera limosa); experiment: Test B flooded paddy test
How it was run: (§3)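 Response scored visually against untreated controls, 0 = no effect and 100 = complete control, 13–15 d after treatment in the greenhouse. Compounds added to paddy water held 3 cm above soil surface. Treatment given at 2-leaf stage.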

[11] = test system: sedge, umbrella (small-flower umbrella sedge, Cyperus difformis); experiment: Test B flooded paddy test
How it was run: as §3

[12] = test system: barnyardgrass (Echinochloa crus-galli); experiment: Test B flooded paddy test
How it was run: as §3

rice (Oryra sativa) = experiment: Test B flooded paddy test
How it was run: as §3

[13] = test system: giant foxtail (Setaria faberii); experiment: Test A postemergence
How it was run: as §1

corn (Zea mays) = experiment: Test A postemergence
How it was run: as §1

[14] = test system: Galium (catchweed bedstraw, Galium aparine); experiment: Test A postemergence
How it was run: as §1

Kochia (Kochia scoparia) [15] = experiment: Test A postemergence
How it was run: as §1

[16] = test system: pigweed (Amaranthus retroflexus); experiment: Test A postemergence
How it was run: as §1

[17] = test system: blackgrass (Alopecurus myosuroides); experiment: Test A postemergence
How it was run: as §1

[18] = test system: wheat (Triticum aestivum); experiment: Test A postemergence
How it was run: as §1

[19] = test system: ryegrass, Italian (Italian ryegrass, Lolium multiflorum); experiment: Test A postemergence
How it was run: as §1

[20] = test system: ragweed (common ragweed, Ambrosia elatior); experiment: Test A postemergence
How it was run: as §1

[21] = test system: barnyardgrass (Echinochloa crus-galli); experiment: Test A postemergence
How it was run: as §1

[22] = 125 g ai/ha, preemergence, 0 to 100 scale (0 no effect, 100 complete control)
[23] = Preemergence, 500 g ai/ha, visual injury approx. 10 d
[24] = Flood, 250 g ai/ha, 0 to 100 scale where 0 is no effect and 100 is complete control, 13 to 15 d
[25] = 125 g ai/ha, postemergence, visual injury rating on 0 to 100 scale (0 no effect, 100 complete control), approx. 10 d
[26] = 500 g ai/ha, postemergence, 0 to 100 scale, 0 no effect, 100 complete control
[27] = Setaria faberi, post-emergence, 240 h, read-out: Plant response rating, Foxtail, Giant
[28] = Zea mays, post-emergence, 240 h, read-out: Plant response rating, Corn
[29] = Galium, post-emergence, 240 h, read-out: Plant response rating, Galium
[30] = Bassia scoparia, post-emergence, 240 h, read-out: Plant response rating, Kochia
[31] = Amaranthus retroflexus, post-emergence, 240 h, read-out: Plant response rating, Pigweed
[32] = Alopecurus myosuroides, post-emergence, 240 h, read-out: Plant response rating, Blackgrass
[33] = Triticum aestivum, post-emergence, 240 h, read-out: Plant response rating, Wheat
[34] = Lolium multiflorum, post-emergence, 240 h, read-out: Plant response rating, Ryegrass, Italian
[35] = Ambrosia artemisiifolia, post-emergence, 240 h, read-out: Plant response rating, Ragweed
[36] = Echinochloa crus-galli, post-emergence, 240 h, read-out: Plant response rating, Barnyardgrass

O=C1NCC(c2ccc(F)cc2F)C1C(=O)Nc1cccc(F)c1F (stereo not shown) [Compound 455]
Plant response rating, Foxtail, Giant [1, 22]: 80
Foxtail, Giant plant response rating (0 to 100 scale, 0 is no effect, 100 is complete control) [1, 23]: 90
Plant response rating, Kochia (Kochia (Kochia scoparia) [2]; [22]): 20
Kochia plant response rating (0 to 100 scale, 0 is no effect, 100 is complete control) (Kochia (Kochia scoparia) [2]; [23]): 50
Plant response rating, Pigweed [3, 22]: 0
Pigweed plant response rating (0 to 100 scale, 0 is no effect, 100 is complete control) [3, 23]: 50
Plant response rating, Ryegrass, Italian [4, 22]: 0
Ryegrass, Italian plant response rating (0 to 100 scale, 0 is no effect, 100 is complete control) [4, 23]: 0
Plant response rating, Ragweed [5, 22]: 0
Ragweed plant response rating (0 to 100 scale, 0 is no effect, 100 is complete control) [5, 23]: 0
Plant response rating, Barnyardgrass [6, 22]: 70
Barnyardgrass plant response rating (0 to 100 scale, 0 is no effect, 100 is complete control) [6, 23]: 90
Plant response rating (scale of 0 to 100), Ducksalad ([7]; 31 g ai/ha): 0
Plant response rating (scale of 0 to 100), Ducksalad ([7]; 62 g ai/ha): 40
Plant response rating (scale of 0 to 100), Ducksalad ([7]; 125 g ai/ha): 80
Plant response rating (scale of 0 to 100), Ducksalad ([7]; 250 g ai/ha): 100
Plant response rating (scale of 0 to 100), Sedge, Umbrella ([8]; 31 g ai/ha): 0
Plant response rating (scale of 0 to 100), Sedge, Umbrella ([8]; 62 g ai/ha): 0
Plant response rating (scale of 0 to 100), Sedge, Umbrella ([8]; 125 g ai/ha): 0
Plant response rating (scale of 0 to 100), Sedge, Umbrella ([8]; 250 g ai/ha): 0
Plant response rating (scale of 0 to 100), Rice (rice (Oryza sativa); 31 g ai/ha): 0
Plant response rating (scale of 0 to 100), Rice (rice (Oryza sativa); 62 g ai/ha): 0
Plant response rating (scale of 0 to 100), Rice (rice (Oryza sativa); 125 g ai/ha): 0
Plant response rating (scale of 0 to 100), Rice (rice (Oryza sativa); 250 g ai/ha): 0
Plant response rating (scale of 0 to 100), Barnyardgrass ([9]; 31 g ai/ha): 0
Plant response rating (scale of 0 to 100), Barnyardgrass ([9]; 62 g ai/ha): 0
Plant response rating (scale of 0 to 100), Barnyardgrass ([9]; 125 g ai/ha): 0
Plant response rating (scale of 0 to 100), Barnyardgrass ([9]; 250 g ai/ha): 50
Plant response rating, Ducksalad [10, 24]: 100
Plant response rating, Sedge, Umbrella [11, 24]: 0
Plant response rating, Barnyardgrass [12, 24]: 75
Plant response rating, Rice (rice (Oryra sativa); [24]): 0
Foxtail, Giant plant response rating [13, 25]: 70
Plant response rating, Foxtail, Giant [13, 26]: 80
Corn plant response rating (corn (Zea mays); [25]): 0
Plant response rating, Corn (corn (Zea mays); [26]): 0
Galium plant response rating [14, 25]: 30
Plant response rating, Galium [14, 26]: 70
Kochia plant response rating (Kochia (Kochia scoparia) [15]; [25]): 60
Plant response rating, Kochia (Kochia (Kochia scoparia) [15]; [26]): 70
Pigweed plant response rating [16, 25]: 50
Plant response rating, Pigweed [16, 26]: 60
Blackgrass plant response rating [17, 25]: 0
Plant response rating, Blackgrass [17, 26]: 0
Wheat plant response rating [18, 25]: 0
Plant response rating, Wheat [18, 26]: 30
Ryegrass, Italian plant response rating [19, 25]: 0
Plant response rating, Ryegrass, Italian [19, 26]: 0
Ragweed plant response rating [20, 25]: 0
Plant response rating, Ragweed [20, 26]: 0
Barnyardgrass plant response rating [21, 25]: 70
Plant response rating, Barnyardgrass [21, 26]: 80

COc1ccc([C@H]2CN(C)C(=O)[C@@H]2C(=O)Nc2ccccc2SC)cc1F [Compound 1022]
pest or weed control at 500 g/ha ([1]; Setaria faberi, pre-emergence, 240 h, read-out: Foxtail, Giant plant response rating): 100%
pest or weed control at 125 g/ha ([1]; Setaria faberi, pre-emergence, 240 h, read-out: Foxtail, Giant plant response rating (0 to 100 scale, 0 is no effect, 100 is complete control)): 100%
pest or weed control at 500 g/ha (Kochia (Kochia scoparia) [2]; Bassia scoparia, pre-emergence, 240 h, read-out: Kochia plant response rating): 80%
pest or weed control at 125 g/ha (Kochia (Kochia scoparia) [2]; Bassia scoparia, pre-emergence, 240 h, read-out: Kochia plant response rating (0 to 100 scale, 0 is no effect, 100 is complete control)): 70%
pest or weed control at 500 g/ha ([3]; Amaranthus retroflexus, pre-emergence, 240 h, read-out: Pigweed plant response rating): 70%
pest or weed control at 125 g/ha ([3]; Amaranthus retroflexus, pre-emergence, 240 h, read-out: Pigweed plant response rating (0 to 100 scale, 0 is no effect, 100 is complete control)): 30%
pest or weed control at 500 g/ha ([4]; Lolium multiflorum, pre-emergence, 240 h, read-out: Ryegrass, Italian plant response rating): 50%
pest or weed control at 125 g/ha ([4]; Lolium multiflorum, pre-emergence, 240 h, read-out: Ryegrass, Italian plant response rating (0 to 100 scale, 0 is no effect, 100 is complete control)): 0%
pest or weed control at 500 g/ha ([5]; Ambrosia artemisiifolia, pre-emergence, 240 h, read-out: Ragweed plant response rating): 0%
pest or weed control at 125 g/ha ([5]; Ambrosia artemisiifolia, pre-emergence, 240 h, read-out: Ragweed plant response rating (0 to 100 scale, 0 is no effect, 100 is complete control)): 0%
pest or weed control at 500 g/ha ([6]; Echinochloa crus-galli, pre-emergence, 240 h, read-out: Barnyardgrass plant response rating): 100%
pest or weed control at 125 g/ha ([6]; Echinochloa crus-galli, pre-emergence, 240 h, read-out: Barnyardgrass plant response rating (0 to 100 scale, 0 is no effect, 100 is complete control)): 60%
pest or weed control at 250 g/ha ([10]; Heteranthera limosa, read-out: Ducksalad plant response rating): 75%
pest or weed control at 250 g/ha ([11]; Cyperus difformis, read-out: Sedge, Umbrella plant response rating): 0%
pest or weed control at 250 g/ha ([12]; Echinochloa crus-galli, read-out: Barnyardgrass plant response rating): 0%
pest or weed control at 250 g/ha (rice (Oryra sativa); Oryza sativa, read-out: Rice plant response rating): 0%
pest or weed control at 125 g/ha [13, 27]: 50%
pest or weed control at 500 g/ha [13, 27]: 70%
plant injury at 125 g/ha (corn (Zea mays); [28]): 0%
plant injury at 500 g/ha (corn (Zea mays); [28]): 20%
pest or weed control at 125 g/ha [14, 29]: 30%
pest or weed control at 500 g/ha [14, 29]: 50%
pest or weed control at 125 g/ha (Kochia (Kochia scoparia) [15]; [30]): 30%
pest or weed control at 500 g/ha (Kochia (Kochia scoparia) [15]; [30]): 60%
pest or weed control at 125 g/ha [16, 31]: 0%
pest or weed control at 500 g/ha [16, 31]: 0%
pest or weed control at 125 g/ha [17, 32]: 0%
pest or weed control at 500 g/ha [17, 32]: 0%
plant injury at 125 g/ha [18, 33]: 0%
plant injury at 500 g/ha [18, 33]: 30%
pest or weed control at 125 g/ha [19, 34]: 0%
pest or weed control at 500 g/ha [19, 34]: 30%
pest or weed control at 125 g/ha [20, 35]: 0%
pest or weed control at 500 g/ha [20, 35]: 0%
pest or weed control at 125 g/ha [21, 36]: 60%
pest or weed control at 500 g/ha [21, 36]: 100%
